Assay [1] relates to HCV replicon (strain 1b) in HUH-7 cells. Put plainly: HCV replicon FRET assay. The format is cell-based, Hepatitis C virus. To be noted: Hepatitis C virus, Huh-7, read-out: HCV Pro Replicon (EC50), HCV replicon cell assay. On the technique in general: Replicon systems follow genome replication, usually without infectious particles.
In assay [2] the target is T1, HCV NS3/4A protease complex, BMS strain (UniProt P27958, species not given/STRAIN_BMS).
T1 construct: other: NS3/4A BMS strain; activity range class; numeric values, unit not given; said of H77 and J4L6S; fused on or other part: A three-lysine solubilising tail at the C-terminus of NS4A; A His tag is implied by the pET21b vector and Ni-NTA purification; Both are printed for the H77 and J4L6S constructs and apply to BMS by inference
T1 sequence (P27958 1027-1657, change not shown, one chain of several): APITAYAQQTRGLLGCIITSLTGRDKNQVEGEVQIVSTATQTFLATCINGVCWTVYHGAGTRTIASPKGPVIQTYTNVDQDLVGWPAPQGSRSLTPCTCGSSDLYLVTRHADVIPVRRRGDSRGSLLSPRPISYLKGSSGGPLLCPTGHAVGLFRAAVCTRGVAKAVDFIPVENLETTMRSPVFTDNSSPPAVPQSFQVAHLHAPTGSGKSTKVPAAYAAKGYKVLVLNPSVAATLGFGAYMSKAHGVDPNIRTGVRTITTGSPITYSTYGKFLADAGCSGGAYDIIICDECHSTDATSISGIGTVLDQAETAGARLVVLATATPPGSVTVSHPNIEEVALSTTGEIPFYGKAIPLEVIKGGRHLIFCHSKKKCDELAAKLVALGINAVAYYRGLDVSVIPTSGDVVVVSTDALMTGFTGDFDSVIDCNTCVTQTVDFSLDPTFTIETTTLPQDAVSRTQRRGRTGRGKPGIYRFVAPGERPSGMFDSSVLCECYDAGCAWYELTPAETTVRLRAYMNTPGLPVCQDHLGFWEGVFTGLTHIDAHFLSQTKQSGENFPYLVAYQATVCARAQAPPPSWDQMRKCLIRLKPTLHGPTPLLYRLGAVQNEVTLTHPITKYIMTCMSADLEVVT
Put plainly: FRET peptide assay to monitor HCV NS3/4A proteolytic activity (BMS strain). The format is biochemical, Hepatitis C virus (genotype 1a). The following applies: read-out: HCV Protease (IC50), NS3/4A BMS strain. The gist of the method: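 Purified recombinant NS3/4A complex from genotype 1a BMS strain, 2-3 nM final, with RET S1 EDANS/DABCYL depsipeptide substrate at 2 μM final in HEPES pH 7.5, NaCl, Triton, glycerol, βME. Cleavage followed in real time by fluorescence. For high-potency compounds: 50 μg/ml BSA added, protease lowered to 300 pM.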

The source of these data is patent publication US7772180B2, “Hepatitis C virus inhibitors” (Bristol-Myers Squibb Company, priority 2006, dated 2010).

Read-outs that look alike come from different tables or passages of the source.

Usually EC50 stands for the concentration that produces a half-maximal response. The term IC50 denotes the concentration that inhibits the measured activity by half. For `C=C[C@@H]1C[C@]1(NC(=O)[C@@H]1C[C@@H](Oc2nc3c(c4cc(OC)ccc24)OCCN3C)CN1C(=O)[C@H](Nc1ccc(F)c(F)c1)C(C)(C)C)C(=O)NS(=O)(=O)C1CC1` [235 second isomer, N-(3,4-difluorophenyl)-3-methyl-D-valyl-(4R)—N-((1R,2S)-1-((cyclopropylsulfonyl)carbamoyl)-2-vinylcyclopropyl)-4-((9-methoxy-4-methyl-3,4-dihydro-2H-[1,4]oxazino[3,2-c]isoquinolin-6-yl)oxy)-L-prolinamide], the EC50 in assay [1] (activity range class) was 0.003 to 0.1 µM. Moreover, the half-inhibitory concentration (IC50) in assay [2] (activity range class) lay in the range of 0.0006 to 0.02 µM.
For `C=C[C@@H]1C[C@]1(NC(=O)[C@@H]1C[C@@H](Oc2nccc3cc(OC)ccc23)CN1C(=O)[C@@H](Nc1cc(C)cc(C)n1)C(C)C)C(=O)NS(=O)(=O)C1CC1` [Compound 1A, N-(4,6-dimethyl-2-pyridinyl)-L-valyl-(4R)—N-((1R,2S)-1-((cyclopropylsulfonyl)carbamoyl)-2-vinylcyclopropyl)-4-((6-methoxy-1-isoquinolinyl)oxy)-L-prolinamide] the same measures were 0.003 to 0.1 µM and 0.0006 to 0.02 µM.
Consider `C=C[C@@H]1C[C@]1(NC(=O)[C@@H]1C[C@@H](Oc2nccc3cc(OC)ccc23)CN1C(=O)[C@H](Nc1cc(C)cc(C)n1)C(C)C)C(=O)NS(=O)(=O)C1CC1` [Compound 1B, N-(4,6-dimethyl-2-pyridinyl)-D-valyl-(4R)—N-((1R,2S)-1-((cyclopropylsulfonyl)carbamoyl)-2-vinylcyclopropyl)-4-((6-methoxy-1-isoquinolinyl)oxy)-L-prolinamide], for which the EC50 in assay [1] (numeric values, unit inferred) was determined as 1.64 µM. Moreover, the IC50 in assay [2] (numeric values, unit inferred) was found to be 0.289 µM.
Regarding `C=C[C@@H]1C[C@]1(NC(=O)[C@@H]1C[C@@H](Oc2nccc3cc(OC)ccc23)CN1C(=O)[C@@H](Nc1nc(OC)nc(OC)n1)C(C)(C)C)C(=O)NS(=O)(=O)C1CC1` [Compound 3, N-(4,6-dimethoxy-1,3,5-triazin-2-yl)-3-methyl-L-valyl-(4R)—N-((1R,2S)-1-((cyclopropylsulfonyl)carbamoyl)-2-vinylcyclopropyl)-4-((6-methoxy-1-isoquinolinyl)oxy)-L-prolinamide], in assay [1] (activity range class), the EC50 is greater than 1 µM. In addition, the IC50 in assay [2] (activity range class) fell in the range of 0.0006 to 0.02 µM.
For `C=C[C@@H]1C[C@]1(NC(=O)[C@@H]1C[C@@H](Oc2nccc3cc(OC)ccc23)CN1C(=O)[C@@H](Nc1nc(OC)nc(OC)n1)C(C)C)C(=O)NS(=O)(=O)C1CC1` [Compound 4, N-(4,6-dimethoxy-1,3,5-triazin-2-yl)valyl-(4R)—N-((1R,2S)-1-((cyclopropylsulfonyl)carbamoyl)-2-vinylcyclopropyl)-4-((6-methoxy-1-isoquinolinyl)oxy)-L-prolinamide] the same measures were greater than 1 µM and 0.02 to 0.2 µM.
For `C=C[C@@H]1C[C@]1(NC(=O)[C@@H]1C[C@@H](Oc2nccc3cc(OC)ccc23)CN1C(=O)[C@H](Nc1cccnc1)C(C)(C)C)C(=O)NS(=O)(=O)C1CC1` [Compound 13B, 3-methyl-N-3-pyridinyl-D-valyl-(4R)—N-((1R,2S)-1-((cyclopropylsulfonyl)carbamoyl)-2-vinylcyclopropyl)-4-((6-methoxy-1-isoquinolinyl)oxy)-L-prolinamide], the concentration for a half-maximal effect (EC50) in assay [1] (numeric values, unit inferred) turned out to be 5.74 µM. In addition, the IC50 in assay [2] (numeric values, unit inferred) worked out at 1.2 µM.
With `C=C[C@@H]1C[C@]1(NC(=O)[C@@H]1C[C@@H](Oc2nccc3cc(OC)ccc23)CN1C(=O)[C@H](Nc1ccccc1)C(C)(C)C)C(=O)NS(=O)(=O)C1CC1` [Compound 15B, 3-methyl-N-phenyl-D-valyl-(4R)—N-((1R,2S)-1-((cyclopropylsulfonyl)carbamoyl)-2-vinylcyclopropyl)-4-((6-methoxy-1-isoquinolinyl)oxy)-L-prolinamide], the EC50 in assay [1] (numeric values, unit inferred) came out at 3.38 µM. Further, the IC50 in assay [2] (numeric values, unit inferred) is 1.9 µM.
